Measured values published in PubChem BioAssay (NCI).
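Protocol summary: plate cells (96-well), add compound at 5 concentrations, incubate 48 h, interpolate endpoints linearly. TGI denotes the concentration required for complete inhibition of growth.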

Key:
Assay in all cases: inhibition of tumour cell growth, NCI panel, 48 h
OVCAR-8 ovarian = test system: OVCAR-8 ovarian
MALME-3M melanoma = test system: MALME-3M melanoma
RXF-631 renal = test system: RXF-631 renal
HCT-15 colon = test system: HCT-15 colon
KM12 colon = test system: KM12 colon
786-0 renal = test system: 786-0 renal
M14 melanoma = test system: M14 melanoma
DLD-1 colon = test system: DLD-1 colon
HL-60(TB) leukemia = test system: HL-60(TB) leukemia
A498 renal = test system: A498 renal
SK-MEL-2 melanoma = test system: SK-MEL-2 melanoma
KM20L2 colon = test system: KM20L2 colon
CCRF-CEM leukemia = test system: CCRF-CEM leukemia
SK-MEL-5 melanoma = test system: SK-MEL-5 melanoma
OVCAR-3 ovarian = test system: OVCAR-3 ovarian
XF 498 CNS = test system: XF 498 CNS
LOX IMVI melanoma = test system: LOX IMVI melanoma
NCI-H522 lung = test system: NCI-H522 lung
U251 CNS = test system: U251 CNS
UACC-257 melanoma = test system: UACC-257 melanoma
DMS 273 small cell lung = test system: DMS 273 small cell lung
DMS 114 small cell lung = test system: DMS 114 small cell lung
LXFL 529 NSCLC = test system: LXFL 529 NSCLC
SNB-75 CNS = test system: SNB-75 CNS
HOP-18 NSCLC = test system: HOP-18 NSCLC
IGROV1 ovarian = test system: IGROV1 ovarian
HCC-2998 colon = test system: HCC-2998 colon
HOP-62 NSCLC = test system: HOP-62 NSCLC
SF-295 CNS = test system: SF-295 CNS
SK-MEL-28 melanoma = test system: SK-MEL-28 melanoma
OVCAR-5 ovarian = test system: OVCAR-5 ovarian
EKVX NSCLC = test system: EKVX NSCLC
HT29 colon = test system: HT29 colon
M19-MEL melanoma = test system: M19-MEL melanoma
UACC-62 melanoma = test system: UACC-62 melanoma
ACHN renal = test system: ACHN renal
UO-31 renal = test system: UO-31 renal
SNB-78 CNS = test system: SNB-78 CNS
NCI-H460 lung = test system: NCI-H460 lung
SN12C renal = test system: SN12C renal
HCT-116 colon = test system: HCT-116 colon
SF-268 CNS = test system: SF-268 CNS
CAKI-1 renal = test system: CAKI-1 renal
SR leukemia = test system: SR leukemia
COLO 205 colon = test system: COLO 205 colon
A549 NSCLC = test system: A549 NSCLC
HOP-92 NSCLC = test system: HOP-92 NSCLC
SNB-19 CNS = test system: SNB-19 CNS
K-562 leukemia = test system: K-562 leukemia
NCI-H226 lung = test system: NCI-H226 lung
OVCAR-4 ovarian = test system: OVCAR-4 ovarian
SK-OV-3 ovarian = test system: SK-OV-3 ovarian
NCI-H23 lung = test system: NCI-H23 lung
RPMI-8226 leukemia = test system: RPMI-8226 leukemia
MOLT-4 leukemia = test system: MOLT-4 leukemia
TK-10 renal = test system: TK-10 renal
SW-620 colon = test system: SW-620 colon
SF-539 CNS = test system: SF-539 CNS

CN(C)CCCN1N=Nc2cccc3cccc1c23
TGI (OVCAR-8 ovarian): > 100 µM
TGI (MALME-3M melanoma): > 100 µM
TGI (RXF-631 renal): > 100 µM
TGI (HCT-15 colon): > 57.5 µM
TGI (KM12 colon): > 100 µM
TGI (786-0 renal): 38.2 µM
TGI (M14 melanoma): > 63.6 µM
TGI (DLD-1 colon): > 100 µM
TGI (HL-60(TB) leukemia): > 63.1 µM
TGI (A498 renal): > 100 µM
TGI (SK-MEL-2 melanoma): > 100 µM
TGI (KM20L2 colon): > 100 µM
TGI (CCRF-CEM leukemia): > 63.4 µM
TGI (SK-MEL-5 melanoma): > 100 µM
TGI (OVCAR-3 ovarian): > 100 µM
TGI (XF 498 CNS): > 100 µM
TGI (LOX IMVI melanoma): > 100 µM
TGI (NCI-H522 lung): > 100 µM
TGI (U251 CNS): > 100 µM
TGI (UACC-257 melanoma): > 100 µM
TGI (DMS 273 small cell lung): 39.8 µM
TGI (DMS 114 small cell lung): > 57.9 µM
TGI (LXFL 529 NSCLC): > 87 µM
TGI (SNB-75 CNS): > 100 µM
TGI (HOP-18 NSCLC): > 100 µM
TGI (IGROV1 ovarian): > 100 µM
TGI (HCC-2998 colon): > 100 µM
TGI (HOP-62 NSCLC): > 100 µM
TGI (SF-295 CNS): > 100 µM
TGI (SK-MEL-28 melanoma): > 100 µM
TGI (OVCAR-5 ovarian): > 100 µM
TGI (EKVX NSCLC): > 100 µM
TGI (HT29 colon): > 100 µM
TGI (M19-MEL melanoma): > 95.3 µM
TGI (UACC-62 melanoma): > 100 µM
TGI (ACHN renal): > 100 µM
TGI (UO-31 renal): > 100 µM
TGI (SNB-78 CNS): > 100 µM
TGI (NCI-H460 lung): > 89.1 µM
TGI (SN12C renal): > 100 µM
TGI (HCT-116 colon): > 64.6 µM
TGI (SF-268 CNS): > 100 µM
TGI (CAKI-1 renal): > 100 µM
TGI (SR leukemia): 51.4 µM
TGI (COLO 205 colon): > 70.2 µM
TGI (A549 NSCLC): > 100 µM
TGI (HOP-92 NSCLC): > 100 µM
TGI (SNB-19 CNS): > 100 µM
TGI (K-562 leukemia): > 65.1 µM
TGI (NCI-H226 lung): > 100 µM
TGI (OVCAR-4 ovarian): 58 µM
TGI (SK-OV-3 ovarian): > 100 µM
TGI (NCI-H23 lung): > 100 µM
TGI (RPMI-8226 leukemia): > 69.3 µM
TGI (MOLT-4 leukemia): > 77.3 µM
TGI (TK-10 renal): > 100 µM
TGI (SW-620 colon): > 54.4 µM
TGI (SF-539 CNS): > 100 µM

COC(=O)/C(=N\NC(N)=O)C(C(=O)C(=O)Nc1ccccc1C(=O)OC)c1nc2ccc(C(=O)c3ccccc3)cc2[nH]c1=O (stereo not given)
TGI (OVCAR-8 ovarian): > 100 µM
TGI (MALME-3M melanoma): > 100 µM
TGI (RXF-631 renal): > 100 µM
TGI (HCT-15 colon): > 100 µM
TGI (KM12 colon): > 100 µM
TGI (786-0 renal): > 100 µM
TGI (M14 melanoma): > 100 µM
TGI (DLD-1 colon): > 100 µM
TGI (HL-60(TB) leukemia): > 100 µM
TGI (A498 renal): > 100 µM
TGI (SK-MEL-2 melanoma): > 100 µM
TGI (KM20L2 colon): > 100 µM
TGI (CCRF-CEM leukemia): > 100 µM
TGI (SK-MEL-5 melanoma): > 100 µM
TGI (OVCAR-3 ovarian): > 100 µM
TGI (XF 498 CNS): > 100 µM
TGI (LOX IMVI melanoma): > 100 µM
TGI (NCI-H522 lung): > 100 µM
TGI (U251 CNS): > 100 µM
TGI (UACC-257 melanoma): > 100 µM
TGI (DMS 273 small cell lung): > 100 µM
TGI (DMS 114 small cell lung): > 100 µM
TGI (LXFL 529 NSCLC): > 100 µM
TGI (SNB-75 CNS): > 100 µM
TGI (HOP-18 NSCLC): > 100 µM
TGI (IGROV1 ovarian): > 100 µM
TGI (HCC-2998 colon): > 100 µM
TGI (HOP-62 NSCLC): > 100 µM
TGI (SF-295 CNS): > 100 µM
TGI (SK-MEL-28 melanoma): > 100 µM
TGI (OVCAR-5 ovarian): > 100 µM
TGI (EKVX NSCLC): > 100 µM
TGI (HT29 colon): > 100 µM
TGI (M19-MEL melanoma): > 100 µM
TGI (UACC-62 melanoma): > 100 µM
TGI (ACHN renal): > 100 µM
TGI (UO-31 renal): > 100 µM
TGI (SNB-78 CNS): > 100 µM
TGI (NCI-H460 lung): > 100 µM
TGI (SN12C renal): > 100 µM
TGI (HCT-116 colon): > 100 µM
TGI (SF-268 CNS): > 100 µM
TGI (CAKI-1 renal): > 100 µM
TGI (SR leukemia): > 100 µM
TGI (A549 NSCLC): > 100 µM
TGI (HOP-92 NSCLC): > 100 µM
TGI (SNB-19 CNS): > 100 µM
TGI (K-562 leukemia): > 100 µM
TGI (NCI-H226 lung): > 100 µM
TGI (OVCAR-4 ovarian): > 100 µM
TGI (SK-OV-3 ovarian): > 100 µM
TGI (NCI-H23 lung): > 100 µM
TGI (RPMI-8226 leukemia): > 100 µM
TGI (MOLT-4 leukemia): > 100 µM
TGI (TK-10 renal): > 100 µM
TGI (SW-620 colon): > 100 µM
TGI (SF-539 CNS): > 100 µM
